In patent US11000033B2, “Ketone or oxime compound, and herbicide” (NISSAN CHEMICAL CORPORATION, priority 2014, dated 2021):

How the values were obtained:
Type in all cases: in vivo
[1] = system: Echinochloa crus-galli var. crus-galli; assay: Test Example 3: herbicidal effect by foliage application, Wagner pot (symbol H); details: application herbicide amount 320 g/ha
Outline: (§1)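 Herbicidal activity was rated three weeks after a foliar spray of diluted emulsion concentrate, applied at a predetermined dose to plants grown for 14 days from seed in waterlogged alluvial soil within a 25–30 °C greenhouse.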

Leptochloa chinensis = assay: Test Example 3: herbicidal effect by foliage application, Wagner pot (symbol D); details: application herbicide amount 320 g/ha
Outline: as §1

Cyperus difformis = assay: Test Example 3: herbicidal effect by foliage application, Wagner pot (symbol E); details: application herbicide amount 320 g/ha
Outline: as §1

[2] = system: directly sowed rice plant; assay: Test Example 3: effect on crop by foliage application, Wagner pot (symbol b); details: application herbicide amount 320 g/ha
Outline: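 Steps: fill a 1/10000-are Wagner pot with alluvial soil; add water and mix to submerge at 0.1–0.5 cm depth; sow rice plus Echinochloa crus-galli var. crus-galli, Leptochloa chinensis and Cyperus difformis; grow in a 25–30 °C greenhouse.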

Digitaria ciliaris = assay: Test Example 5: herbicidal effect by foliage application, plastic box (symbol F); details: 320 g/ha, 3 weeks after application
Outline: (§2)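 Sowing in sterilized diluvial soil, 14 days' greenhouse growth at 25° C. to 30° C., then uniform small-sprayer foliar application of aqueous emulsion dilution; plants scored three weeks afterwards.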

Setaria viridis = assay: Test Example 5: herbicidal effect by foliage application, plastic box (symbol G); details: 320 g/ha, 3 weeks after application
Outline: as §2

[3] = system: Echinochloa crus-galli var. crus-galli; assay: Test Example 5: herbicidal effect by foliage application, plastic box (symbol H); details: 320 g/ha, 3 weeks after application
Outline: as §2

Avena fatua = assay: Test Example 5: herbicidal effect by foliage application, plastic box (symbol I); details: 320 g/ha, 3 weeks after application
Outline: as §2

Alopecurus myosuroides = assay: Test Example 5: herbicidal effect by foliage application, plastic box (symbol J); details: 320 g/ha, 3 weeks after application
Outline: as §2

Lolium multiflorum Lam. = assay: Test Example 5: herbicidal effect by foliage application, plastic box (symbol K); details: 320 g/ha, 3 weeks after application
Outline: as §2

Apera spica-venti = assay: Test Example 5: herbicidal effect by foliage application, plastic box (symbol L); details: 320 g/ha, 3 weeks after application
Outline: as §2

Abutilon theophrasti = assay: Test Example 5: herbicidal effect by foliage application, plastic box (symbol M); details: 320 g/ha, 3 weeks after application
Outline: as §2

Amaranthus retroflexus = assay: Test Example 5: herbicidal effect by foliage application, plastic box (symbol N); details: 320 g/ha, 3 weeks after application
Outline: as §2

Chenopodium album = assay: Test Example 5: herbicidal effect by foliage application, plastic box (symbol O); details: 320 g/ha, 3 weeks after application
Outline: as §2

Stellaria media = assay: Test Example 5: herbicidal effect by foliage application, plastic box (symbol P); details: 320 g/ha, 3 weeks after application
Outline: as §2

Galium spurium = assay: Test Example 5: herbicidal effect by foliage application, plastic box (symbol Q); details: 320 g/ha, 3 weeks after application
From the text: Herbicidal Effect Test by Foliage Application
Sterilized diluvial soil was placed in a plastic box having a length of 21 cm, a width of 13 cm, and a depth of 7 cm. Each of the seeds of Digitaria ciliaris, Setaria viridis, Echinochloa crus-galli var. crus-galli, Avena fatua, Alopecurus myosuroides, Lolium multiflorum Lam., Apera spica-venti, Abutilon theophrasti, Amaranthus retroflexus, Chenopodium album, Stellaria media, Galium spurium, Veronica persica, corn, soybean, rice plant, wheat, beet, and rapeseed was sowed in a spot-like manner and was covered with the soil of a thickness of about 1.5 cm. Thereafter, the plants were grown in the greenhouse of 25° C. to 30° C. After the plants were grown for 14 days, the emulsion agent of the compound of the present invention prepared in accordance with Formulation Example 2 was diluted with water so as to be a predetermined herbicide amount and the diluted emulsion agent was uniformly applied to a foliage part with a small-size spray. 3 weeks later from the herbicide application, the effect to each plant was investigated in accordance with the criteria of Test Example 1.

Veronica persica = assay: Test Example 5: herbicidal effect by foliage application, plastic box (symbol R); details: 320 g/ha, 3 weeks after application
Outline: as §2

corn = assay: Test Example 5: effect on crop by foliage application, plastic box (symbol c); details: 320 g/ha, 3 weeks after application
Outline: (§3)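 Soil: sterilized diluvial. Container: plastic box, 21 × 13 cm, 7 cm deep. Sowing: spot-like, ~1.5 cm cover. Growth: greenhouse, 25° C. to 30° C.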

soybean = assay: Test Example 5: effect on crop by foliage application, plastic box (symbol d); details: 320 g/ha, 3 weeks after application
Outline: as §3

rice plant = assay: Test Example 5: effect on crop by foliage application, plastic box (symbol b); details: 320 g/ha, 3 weeks after application
Outline: as §3

wheat = assay: Test Example 5: effect on crop by foliage application, plastic box (symbol e); details: 320 g/ha, 3 weeks after application
Outline: as §3

beet = assay: Test Example 5: effect on crop by foliage application, plastic box (symbol f); details: 320 g/ha, 3 weeks after application
Outline: as §3

rapeseed = assay: Test Example 5: effect on crop by foliage application, plastic box (symbol g); details: 320 g/ha, 3 weeks after application
Outline: as §3

Row | Structure (SMILES) | herbicidal effect on H (Echinochloa crus-galli var. crus-galli), grade 0-5 [1] | herbicidal effect on D (Leptochloa chinensis), grade 0-5 (Leptochloa chinensis) | herbicidal effect on E, grade 0-5 (Cyperus difformis) | effect on crop b (directly sowed rice plant), grade 0-5 [2] | F: Digitaria ciliaris, herbicidal effect grade (Digitaria ciliaris) | G: Setaria viridis, herbicidal effect grade (Setaria viridis) | H: Echinochloa crus-galli var. crus-galli, herbicidal effect grade [3] | I: Avena fatua, herbicidal effect grade (Avena fatua) | J: Alopecurus myosuroides, herbicidal effect grade (Alopecurus myosuroides) | K: Lolium multiflorum Lam., herbicidal effect grade (Lolium multiflorum Lam.) | L: Apera spica-venti, herbicidal effect grade (Apera spica-venti) | M: Abutilon theophrasti, herbicidal effect grade (Abutilon theophrasti) | N: Amaranthus retroflexus, herbicidal effect grade (Amaranthus retroflexus) | O: Chenopodium album, herbicidal effect grade (Chenopodium album) | P: Stellaria media, herbicidal effect grade (Stellaria media) | Q: Galium spurium, herbicidal effect grade (Galium spurium) | R: Veronica persica, herbicidal effect grade (Veronica persica) | c: corn, effect on crop grade (corn) | d: soybean, effect on crop grade (soybean) | b: directly sowed rice plant, effect on crop grade (rice plant) | also measured
1 | CC(CC1CC(O)=C(c2c(C)cc(C)cc2C)C1=O)=NOCCN (stereo not drawn) [1-132] | 2 (Herbicidal ratio of 20% or higher and lower than 40%) | 1 (Herbicidal ratio of 5% or higher and lower than 20%) | 0 (Herbicidal ratio of 5% or lower (almost no effect)) | 1 (Herbicidal ratio of 5% or higher and lower than 20%) |  |  |  |  |  |  |  |  |  |  |  |  |  |  |  |  | F: Digitaria ciliaris, herbicidal effect (criteria 0-5) (Digitaria ciliaris): 0 (Herbicidal ratio of 5% or lower (almost no effect)); G: Setaria viridis, herbicidal effect (criteria 0-5) (Setaria viridis): 0 (Herbicidal ratio of 5% or lower (almost no effect)); H: Echinochloa crus-galli var. crus-galli, herbicidal effect (criteria 0-5) [3]: 0 (Herbicidal ratio of 5% or lower (almost no effect)); I: Avena fatua, herbicidal effect (criteria 0-5) (Avena fatua): 1 (Herbicidal ratio of 5% or higher and lower than 20%); J: Alopecurus myosuroides, herbicidal effect (criteria 0-5) (Alopecurus myosuroides): 2 (Herbicidal ratio of 20% or higher and lower than 40%); K: Lolium multiflorum Lam., herbicidal effect (criteria 0-5) (Lolium multiflorum Lam.): 3 (Herbicidal ratio of 40% or higher and lower than 70%); L: Apera spica-venti, herbicidal effect (criteria 0-5) (Apera spica-venti): 1 (Herbicidal ratio of 5% or higher and lower than 20%); M: Abutilon theophrasti, herbicidal effect (criteria 0-5) (Abutilon theophrasti): 0 (Herbicidal ratio of 5% or lower (almost no effect)); N: Amaranthus retroflexus, herbicidal effect (criteria 0-5) (Amaranthus retroflexus): 0 (Herbicidal ratio of 5% or lower (almost no effect)); O: Chenopodium album, herbicidal effect (criteria 0-5) (Chenopodium album): 0 (Herbicidal ratio of 5% or lower (almost no effect)); P: Stellaria media, herbicidal effect (criteria 0-5) (Stellaria media): 0 (Herbicidal ratio of 5% or lower (almost no effect)); Q: Galium spurium, herbicidal effect (criteria 0-5) (Galium spurium): 0 (Herbicidal ratio of 5% or lower (almost no effect)); R: Veronica persica, herbicidal effect (criteria 0-5) (Veronica persica): 0 (Herbicidal ratio of 5% or lower (almost no effect)); c: corn, effect on crop (criteria 0-5) (corn): 0 (Herbicidal ratio of 5% or lower (almost no effect)); d: soybean, effect on crop (criteria 0-5) (soybean): 0 (Herbicidal ratio of 5% or lower (almost no effect)); b: directly sowed rice plant, effect on crop (criteria 0-5) (rice plant): 1 (Herbicidal ratio of 5% or higher and lower than 20%); e: wheat, effect on crop (criteria 0-5) (wheat): 0 (Herbicidal ratio of 5% or lower (almost no effect)); f: beet, effect on crop (criteria 0-5) (beet): 0 (Herbicidal ratio of 5% or lower (almost no effect)); g: rapeseed, effect on crop (criteria 0-5) (rapeseed): 3 (Herbicidal ratio of 40% or higher and lower than 70%)
2 | CCOC(=O)C(C(=O)C(C)C)C1CC(O)=C(c2c(C)cc(Br)cc2C)C1=O (mixture of isomers) [10-001] |  |  |  |  | 3 (Herbicidal ratio of 40% or higher and lower than 70%) | 2 (Herbicidal ratio of 20% or higher and lower than 40%) | 4 (Herbicidal ratio of 70% or higher and lower than 90%) | 1 (Herbicidal ratio of 5% or higher and lower than 20%) | 1 (Herbicidal ratio of 5% or higher and lower than 20%) | 3 (Herbicidal ratio of 40% or higher and lower than 70%) | 0 (Herbicidal ratio of 5% or lower (almost no effect)) | 0 (Herbicidal ratio of 5% or lower (almost no effect)) | 0 (Herbicidal ratio of 5% or lower (almost no effect)) | 0 (Herbicidal ratio of 5% or lower (almost no effect)) | 0 (Herbicidal ratio of 5% or lower (almost no effect)) | 0 (Herbicidal ratio of 5% or lower (almost no effect)) | 0 (Herbicidal ratio of 5% or lower (almost no effect)) | 1 (Herbicidal ratio of 5% or higher and lower than 20%) | 0 (Herbicidal ratio of 5% or lower (almost no effect)) | 2 (Herbicidal ratio of 20% or higher and lower than 40%) | H (Echinochloa crus-galli var. crus-galli) herbicidal effect grade ([1]; Table 24): 5 (Herbicidal ratio of 90% or more (almost completely withered)); D (Leptochloa chinensis) herbicidal effect grade (Leptochloa chinensis; Table 24): 4 (Herbicidal ratio of 70% or higher and lower than 90%); E herbicidal effect grade (Cyperus difformis; Table 24): 0 (Herbicidal ratio of 5% or lower (almost no effect)); b (directly sowed rice plant) effect on crop grade ([2]; Table 24): 3 (Herbicidal ratio of 40% or higher and lower than 70%); e: wheat, effect on crop grade (wheat): 0 (Herbicidal ratio of 5% or lower (almost no effect)); f: beet, effect on crop grade (beet): 0 (Herbicidal ratio of 5% or lower (almost no effect)); g: rapeseed, effect on crop grade (rapeseed): 0 (Herbicidal ratio of 5% or lower (almost no effect))
3 | CON=C(C)CC1CC(OC(=O)N(C(C)C)C(C)C)=C(c2c(C)cc(C)cc2C)C1=O (stereo not drawn) [1-158] | 0 (Herbicidal ratio of 5% or lower (almost no effect)) | 2 (Herbicidal ratio of 20% or higher and lower than 40%) | 0 (Herbicidal ratio of 5% or lower (almost no effect)) | 2 (Herbicidal ratio of 20% or higher and lower than 40%) | 0 (Herbicidal ratio of 5% or lower (almost no effect)) | 0 (Herbicidal ratio of 5% or lower (almost no effect)) | 1 (Herbicidal ratio of 5% or higher and lower than 20%) | 3 (Herbicidal ratio of 40% or higher and lower than 70%) | 1 (Herbicidal ratio of 5% or higher and lower than 20%) | 4 (Herbicidal ratio of 70% or higher and lower than 90%) | 0 (Herbicidal ratio of 5% or lower (almost no effect)) | 0 (Herbicidal ratio of 5% or lower (almost no effect)) | 0 (Herbicidal ratio of 5% or lower (almost no effect)) | 0 (Herbicidal ratio of 5% or lower (almost no effect)) | 0 (Herbicidal ratio of 5% or lower (almost no effect)) | 0 (Herbicidal ratio of 5% or lower (almost no effect)) | 0 (Herbicidal ratio of 5% or lower (almost no effect)) | 0 (Herbicidal ratio of 5% or lower (almost no effect)) | 0 (Herbicidal ratio of 5% or lower (almost no effect)) | 1 (Herbicidal ratio of 5% or higher and lower than 20%) | e: wheat, effect on crop grade (wheat): 0 (Herbicidal ratio of 5% or lower (almost no effect)); f: beet, effect on crop grade (beet): 0 (Herbicidal ratio of 5% or lower (almost no effect)); g: rapeseed, effect on crop grade (rapeseed): 2 (Herbicidal ratio of 20% or higher and lower than 40%)
